Measurements as given in patent US9573972B2, “Nurotoxic sterol glycosides” (priority 2008, dated 2017).

System: lumbar spinal cord α- and γ-motor neurons
Assay: Motor neuron counts (cresyl violet, Nissl), lumbar spinal cord
Type: in vivo, mouse
Experimental: Mice were sacrificed for histological analysis at 35 weeks (35.9-48.6 g) and 52 weeks (41.2-51.4 g) of age. Age-matched control mice from each time point were included for comparison. The mice were deeply anaesthetized in a chamber with 4% isoflurane and perfused intracardially with filtered PBS (pH 7.4) until the effluent was cleared of blood (2 minutes), followed by perfusion with cold (4° C.) 4% paraformaldehyde (PFA) in 0.1 M phosphate buffer (pH 7.4) for 5 minutes (30 mL). The PBS and the PFA were delivered through separate sterile platinum-cured silicon tubing (Cole-Parmer Canada Inc., Montreal, Canada) and peristaltic pumps (MasterFlex peristaltic pump, Cole-Parmer Canada Inc., Montreal, Canada). The brains and spinal cords were dissected out and fixed overnight at 4° C. and equilibrated in increasing concentrations of sucrose in phosphate-buffered saline, pH 7.4 (10, 20, and 25%) over a 3-day period. Complete equilibration of the tissues was taken as the moment the tissues sank to the bottom of the scintillation tubes filled with 25% sucrose. After equilibration, the spinal cord and brain specimens were set in molds (Tissue-tek Cryomold, Sakura Finetek, USA, Torrance, Calif.) with an optimum cutting temperature (OCT) gel-sucrose mixture frozen by immersion in an isopentane (BDH Laboratory Supplies, UK) bath on dry ice and stored at −80° C. until processing.
Cryosectioning of tissue: Frozen, coronal sections (spinal cord: 20 μm, brain: 30 μm) were cut with a Hacker-Bright cryostat (Hacker Instruments and Industries Inc., Winnsboro, S.C.) and mounted on charged glass slides (Superfrost Plus; Fisher Scientific, Pittsburgh, Pa.) so that adjacent CNS sections on each slide represented regions 100 μm and 150 μm apart for spinal cord and brain, respectively (Tabata et al., 2008). The slides were stored at −80° C. until histological processing. To ensure CNS sections were matched between animals, anatomical landmarks were verified using a mouse brain atlas (Paxinos and Franklin, The mouse brain in stereotaxic coordinates: Second Edition, K.B.J., Academic Press, New York, 2001).
Histology and quantification of motor neurons: Spinal cord and brain sections from each animal were stained for Nissl body substance. At room temperature (RT), sections were rinsed in a graded ethanol series (95%:15 min; 70%:1 min; 50%:1 min) to rehydrate and remove lipids and fixation chemicals from the tissue. The tissue were then rinsed for 2 min in two exchanges of distilled water, stained with twice-filtered cresyl violet stain (1.25 g cresyl violet acetate, 0.75 mL glacial acetic acid to 250 mL distilled water), rinsed in distilled water (1 minute), and then dehydrated (50% ethanol: 1 minute; 1% glacial acetic acid-70% ethanol: 2 minutes; 95% ethanol: 2 minutes; 95% ethanol: 3 dips; 100% ethanol: 1 minute) and cleared in xylene. The slides were then cover-slipped in Entellen mountant (Merck, Darmstadt, Germany). The tissue mounted slides were selected with a randomized start and sampled starting from the lumbar 2 region to the 6th. […] The boundaries for the ventral horn was determined by the margins of the gray matter for the lateral, medial and ventral boundaries as well as with the aid of an artificial line drawn laterally through the central canal. Both the left and right ventral horns from 12 sections from each animal were counted. Alpha-motor neurons and γ-motor neurons with and without apoptotic structural changes were counted using strict morphological and size criteria. Non-apoptotic α-neurons were considered as the following: Large, multipolar cells with a round, pale nucleus; visible nucleolus; globular Nissl body staining of the cytoplasm; and a diameter of 30-45 μm. In doing so, astrocytes, oligodendrocytes and microglia were excluded from the “α-motor neuron” counts (Martin, L. J. (1999) J Neuropathol Exp Neurol. 58, 459-71; Sepkuty, J. P., et al. (2002) J Neurosci. 22, 6372-9; Tabata et al., 2008). […]

[1] = SG-fed vs control, Time-point 1 (35 wk)
[2] = SG-fed vs control, Time-point 2 (52 wk)
[3] = SG-group over time (35 to 52 wk)

**Q.** For `CC[C@H](/C=C/[C@@H](C)[C@H]1CC[C@H]2[C@@H]3CC=C4C[C@@H](O[C@@H]5O[C@H](CO)[C@@H](O)[C@H](O)[C@H]5O)CC[C@]4(C)[C@H]3CC[C@]12C)C(C)C` [SG, Stigmasterol β-D-Glucopyranoside], which “Chromatolytic α-MN” value [1] is on record?
**A.** The value was “Chromatolytic α-MN (ns)”.

**Q.** What about the “Healthy α-MN per lumbar cord section” value [1] of the same compound?
**A.** Its value is “Healthy α-MN (ns)”.

**Q.** And the “Pyknotic α-MN” value [1]?
**A.** The value was “Pyknotic α-MN (ns)”.

**Q.** And the “Total γ-MN” value [1]?
**A.** The value was “Total γ-MN (ns)”.

**Q.** And the “Chromatolytic α-MN” value [2]?
**A.** Its value is “Chromatolytic α-MN (ns)”.

**Q.** And the “Pyknotic α-MN” value [2]?
**A.** Its value is “Pyknotic α-MN (ns)”.

**Q.** And the “Total γ-MN” value [2]?
**A.** Its value is “Total γ-MN (ns)”.

**Q.** And the “Chromatolytic α-MN over time” value [3]?
**A.** The value was “(control group & SG-group independently over time) (ns)”.

**Q.** And the “Pyknotic α-MN over time” value [3]?
**A.** Its value is “(control group and SG-group independently over time) (ns)”.

**Q.** And the “Total γ-MN over time” value [3]?
**A.** The value was “(control group and SG-group independently over time) (ns)”.
